# Target: T1, full-length human PKCι (Homo sapiens, UniProt P41743)
# T1 construct: Recombinant, full-length human PKCι expressed in Sf21 insect cells is also commercially available; purchased; host or cells: Sf21 insect cells
# T1 sequence (P41743 1-596): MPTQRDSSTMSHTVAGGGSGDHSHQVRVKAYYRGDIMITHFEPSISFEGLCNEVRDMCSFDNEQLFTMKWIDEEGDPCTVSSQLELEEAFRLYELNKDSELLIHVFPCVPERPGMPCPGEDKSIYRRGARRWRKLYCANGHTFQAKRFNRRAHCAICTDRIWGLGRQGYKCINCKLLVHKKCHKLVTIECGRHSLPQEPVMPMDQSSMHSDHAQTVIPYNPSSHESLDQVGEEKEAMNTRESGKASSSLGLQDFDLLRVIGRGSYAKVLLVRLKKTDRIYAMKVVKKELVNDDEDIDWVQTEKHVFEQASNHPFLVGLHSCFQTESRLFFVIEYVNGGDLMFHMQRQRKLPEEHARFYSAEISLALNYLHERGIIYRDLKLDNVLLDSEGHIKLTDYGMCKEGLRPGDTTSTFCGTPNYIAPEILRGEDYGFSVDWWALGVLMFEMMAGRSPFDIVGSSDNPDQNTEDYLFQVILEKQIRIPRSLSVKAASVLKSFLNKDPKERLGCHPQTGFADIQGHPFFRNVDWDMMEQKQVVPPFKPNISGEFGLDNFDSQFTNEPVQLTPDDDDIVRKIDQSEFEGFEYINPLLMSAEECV
# Experiment: PKCι IC50 IMAP assay, full-length PKCι at 150 μM ATP
# Format: biochemical
# Conditions: read-out: IC50 in IMAP assay against full length PKCi at 150 μM ATP
# Summary of the method: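 Full-length human PKCι from Sf21 cells, typically 15 pM, with 100 nM 5FAM-PKCε pseudosubstrate peptide and 150 μM ATP (5× apparent KM), 60 min at room temperature, 4% DMSO. IMAP fluorescence polarisation read-out; inhibition normalised to no-compound and no-enzyme controls, IC50 from curve fit.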
row,SMILES,IC50 [nM]
1,"N[C@H](CNc1nc(-c2ccncc2)nc2c(-c3ccc(-c4ccc(Cl)cc4)cc3)nccc12)Cc1ccccc1 [Example 107, N-[(2S)-2-amino-3-phenylpropyl]-8-[4-(4-chloro-phenyl)-phenyl]-2-(pyridin-4-yl)pyrido[3,4-d]pyrimidin-4-amine]",1000 to 10000
2,"c1cc(C2CC2)n2nc(Nc3cc(-c4nc(N5CCNCC5)c5c(C6CC6)cncc5n4)ccn3)nc2c1 [Example 825, [4-(5-Cyclopropyl-4-piperazin-1-yl-pyrido[3,4-d]pyrimidin-2-yl)-pyridin-2-yl]-(5-cyclopropyl-[1,2,4]triazolo[1,5-a]pyridin-2-yl)-amine]",< 100
3,"COc1cncc2nc(-c3ccnc(Nc4cnn(C5CCNCC5)c4)c3)nc(N3CCNCC3)c12 [Example 414, [4-(5-Methoxy-4-piperazin-1-yl-pyrido[3,4-d]pyrimidin-2-yl)-pyridin-2-yl]-(1-piperidin-4-yl-1H-pyrazol-4-yl)-amine]",< 100
4,"CC(C)NC(=O)C1CCN(c2nc(-c3ccnc(NC4CCCC4)c3)nc3cncc(C4CC4)c23)CC1 [Example 679, 1-[2-(2-Cyclopentylamino-pyridin-4-yl)-5-cyclopropyl-pyrido[3,4-d]pyrimidin-4-yl]-piperidine-4-carboxylicacid isopropylamide]",1000 to 10000
5,"COc1cncc2nc(-c3ccnc(Nc4cc(C)on4)c3)nc(N3CCNCC3)c12 [Example 496, [4-(5-Methoxy-4-piperazin-1-yl-pyrido[3,4-d]pyrimidin-2-yl)-pyridin-2-yl]-(5-methyl-isoxazol-3-yl)-amine]",10000 to 40000
6,"c1cnc(Nc2cc(-c3nc(N[C@@H]4CCNC4)c4ccncc4n3)ccn2)cn1 [Example 243, {2-[2-(Pyrazin-2-ylamino)-pyridin-4-yl]-pyrido[3,4-d]pyrimidin-4-yl}-(R)-pyrrolidin-3-yl-amine]",1000 to 10000
7,"COc1cncc2nc(-c3ccnc(NC(=O)c4cccs4)c3)nc(N[C@@H]3CCNC3)c12 [Example 240, Thiophene-2-carboxylic acid {4-[5-methoxy-4-((R)-pyrrolidin-3-ylamino)-pyrido[3,4-d]pyrimidin-2-yl]-pyridin-2-yl}-amide]",< 100
8,"Cc1noc(C)c1-c1nccc2c(NC[C@@H](N)Cc3ccccc3)nc(-c3ccncc3)nc12 [Example 112, N-[(2S)-2-amino-3-phenylpropyl]-8-(dimethyl-1,2-oxazol-4-yl)-2-(pyridin-4-yl)-pyrido[3,4-d]-pyrimidin-4-amine]",10000 to 40000
9,"Cc1ccc(-c2nccc3c(NC[C@@H](N)Cc4ccccc4)nc(-c4ccncc4)nc23)s1 [Example 111, N-[(2S)-2-amino-3-phenylpropyl]-8-(5-methyl-thiophen-2-yl)-2-(pyridin-4-yl)pyrido[3,4-d]pyrimidin-4-amine]",100 to 1000
10,"COc1cncc2nc(-c3ccnc(Nc4c(C)cccc4F)c3)nc(N3CCNCC3)c12 [Example 422, (2-Fluoro-6-methyl-phenyl)-[4-(5-methoxy-4-piperazin-1-yl-pyrido[3,4-d]pyrimidin-2-yl)-pyridin-2-yl]-amine]",< 100
11,"Nc1cccc(C(=O)Nc2cc(-c3nc(N[C@@H]4CCNC4)c4ccncc4n3)ccn2)c1 [Example 309, 3-Amino-N-{4-[4-((R)-pyrrolidin-3-ylamino)-pyrido[3,4-d]pyrimidin-2-yl]-pyridin-2-yl}-benzamide]",100 to 1000
12,"CC(=O)Nc1cc(-c2nc(N3CCN[C@H](C(F)(F)F)C3)c3c(C4CC4)cncc3n2)ccn1 [Example 659, N-{4-[5-Cyclopropyl-4-((S)-3-trifluoromethyl-piperazin-1-yl)-pyrido[3,4-d]pyrimidin-2-yl]-pyridin-2-yl}-acetamide]",100 to 1000
13,"CC(C)(C)c1cc2c(-c3nc(N4CCNCC4)c4c(C5CC5)cncc4n3)c(Cl)cnc2[nH]1 [Example 1229, 2-(2-tert-Butyl-5-chloro-1H-pyrrolo[2,3-b]pyridin-4-yl)-5-cyclopropyl-4-piperazin-1-yl-pyrido[3,4-d]pyrimidine]",< 100
